This note sets out measurements from US9598433B2, “Hepatitis C virus inhibitors” (BRISTOL-MYERS SQUIBB COMPANY, priority 2012, dated 2017).

The test system of assay [1] is HCV genotype 1a (H77 strain) replicon in HUH-7 cells. Kind of assay: HCV replicon luciferase reporter assay, genotype 1a. The class given is cell-based. The following applies: Hepatitis C virus, 72 h, genotype 1a replicon, 3 days incubation, read-out: LE_1a (EC50, range). An excerpt:
(§1) An HCV replicon whole cell system was established as described by Lohmann V, Korner F, Koch J, Herian U, Theilmann L, Bartenschlager R., Science 285(5424):110-3 (1999) and modified to introduce a luciferase reporter, as first described by Krieger et al (Krieger N, Lohmann V, and Bartenschlager R, J. Virol. 75(10):4614-4624 (2001)). CDNA encoding a humanized form of the Renilla luciferase gene and a linker sequence fused directly to the 3′-end of the luciferase gene were introduced into the replicon construct using an Ascl restriction site located in core, directly upstream of the neomycin marker gene. The adaptive mutation at position 1179 (serine to isoleucine) was also introduced (Blight K J, Kolykhalov, A A, Rice, C M, Science 290(5498):1972-1974). A stable cell line constitutively expressing this HCV replicon construct was generated by first linearizing plasmid DNAs with ScaI. RNA transcripts were synthesized in vitro using the T7 MegaScript transcription kit (Ambion, Austin, Tex.) according to manufacturer's directions. In vitro transcripts of the cDNA were transfected into the human hepatoma cell line, HUH-7. […] Resulting cell lines were characterized for positive and negative strand RNA production and protein production over time.
A stable HCV replicon luciferase reporter cell line representing the genotype 1a H77 strain (Yanagi M, Purcell R H, Emerson S U, et al. Transcripts from a single full-length cDNA clone of hepatitis C virus are infectious when directly transfected into the liver of a chimpanzee. Proc Natl Acad Sci USA 1997; 94(16):8738-8743) was generated as described previously for the genotype 1b(Con1) replicon luciferase cell line. The replicon construct was modified by introducing mutations were introduced into the genes encoding the NS3 helicase domain (proline replaced by leucine at position 1496) and NS5A (serine to isoleucine at position 2204) to improve replication in cell culture.
(§2) HCV replicon luciferase assays were developed to monitor the inhibitory effects of compounds described in the disclosure on HCV genotypes 1a and 1b viral replication. HUH-7 cells, constitutively expressing the HCV replicon, were grown in Dulbecco's Modified Eagle Media (DMEM) (Gibco-BRL) containing 10% Fetal calf serum (FCS) (Sigma) and 1 mg/mL G418 (Gibco-BRL). Compounds were serially diluted 3 folds in DMSO for a twenty-point titration and subsequently transferred to sterile 384-well tissue-culture treated plates (Corning cat #3571). The plates were then seeded with 50 μL of cells at a density of 3.0×10^3 cells/well in DMEM containing 4% FCS (final DMSO concentration at 0.5%). After 3 days incubation at 37° C., cells were analyzed for Renilla Luciferase activity using the EnduRen as substrate (Promega cat #E6485). The EnduRen substrate was diluted in DMEM and then added to the plates to a final concentration of 7.5 μM. The plates were incubated for 2 hrs at 37° C. and then read immediately for 30 seconds with Viewlux Imager (PerkinElmer) using a luminescence program. To assess cytotoxicity of compounds, CC50 values were generated by multiplexing the EnduRen-containing plates with Cell Titer-Blue (Promega, cat # G8082). Cell-Titer Blue (3 μL) was added to each well and incubated for 8 hrs at 37° C. The fluorescence signal from each well was read, with an excitation wavelength at 525/10 nm and an emission wavelength of 598/10 nm, using the Viewlux Imager.
(§3) The EC50 values for compounds were calculated by using a four-parameter logistic equation: y=A+((B−A)/(1+((C/x)^D))), where A and B denotes minimal and maximal % inhibition, respectively, C is the EC50, D is the hill slope and x represents compound concentration.
A general note: A replicon is a self-replicating genome or part of one, used to study replication in cells.

Assay [2] relates to HCV genotype 1b (Con1) replicon in HUH-7 cells. Nature of the assay: HCV replicon luciferase reporter assay, genotype 1b. To be noted: Hepatitis C virus, 72 h, genotype 1b replicon, 3 days incubation, read-out: LE_1b (EC50, range). Format: cell-based.
Source text: as §1, §2, §3

What is called EC50 is the concentration that produces a half-maximal response. As for `CC[C@@H]1O[C@H](C)CC/C=C\[C@@H]2C[C@@]2(C(=O)NS(=O)(=O)C2(C)CC2)NC(=O)[C@@H]2C[C@@H](Oc3ncc(OC)c4ccc(F)cc34)CN2C(=O)[C@H]1NC(=O)OC(C)(C)C(F)F` [Compound 2617, 1,1-difluoro-2-methylpropan-2-yl ((2R,6S,7S,9R,13aS,14aR,16aS,Z)-7-ethyl-2-((7-fluoro-4-methoxyisoquinolin-1-yl)oxy)-9-methyl-14a-(((1-methylcyclopropyl)sulfonyl)carbamoyl)-5,16-dioxo-2,3,5,6,7,9,10,11,13a,14,14a,15,16,16a-tetradecahydro-1H-cyclopropa[i]pyrrolo[1,2-e][1,5,8]oxadiazacyclopentadecin-6-yl)carbamate], the EC50 in assay [1] is 0.1 to 0.5 nM; in assay [2], 0.51 to 1 nM.

Take `CC[C@@H]1O[C@H](C)CC/C=C\[C@@H]2C[C@@]2(C(=O)NS(=O)(=O)C2(C)CC2)NC(=O)[C@@H]2C[C@@H](Oc3nc(-c4ccc(OC(C)C)cn4)cc4cc(OC)ccc34)CN2C(=O)[C@H]1NC(=O)OC(C)(C)C(F)(F)F` [Compound 2612, 1,1,1-trifluoro-2-methylpropan-2-yl ((2R,6S,7S,9R,13aS,14aR,16aS,Z)-7-ethyl-2-((3-(5-isopropoxypyridin-2-yl)-6-methoxyisoquinolin-1-yl)oxy)-9-methyl-14a-(((1-methylcyclopropyl)sulfonyl)carbamoyl)-5,16-dioxo-2,3,5,6,7,9,10,11,13a,14,14a,15,16,16a-tetradecahydro-1H-cyclopropa[i]pyrrolo[1,2-e][1,5,8]oxadiazacyclopentadecin-6-yl)carbamate]: the EC50 in assay [1] and in assay [2] was 1.01 to 5 nM each time.

As to `CC[C@@H]1OCCC/C=C\[C@@H]2C[C@@]2(C(=O)NS(=O)(=O)C2(C)CC2)NC(=O)[C@@H]2C[C@@H](Oc3nc(OC)cc4cc(OC)ccc34)CN2C(=O)[C@H]1NC(=O)OC(C)(C)C(F)(F)F` [Compound 1010, 1,1,1-trifluoro-2-methylpropan-2-yl ((2R,6S,7S,13aS,14aR,16aS,Z)-2-((3,6-dimethoxyisoquinolin-1-yl)oxy)-7-ethyl-14a-(((1-methylcyclopropyl)sulfonyl)carbamoyl)-5,16-dioxo-2,3,5,6,7,9,10,11,13a,14,14a,15,16,16a-tetradecahydro-1H-cyclopropa[i]pyrrolo[1,2-e][1,5,8]oxadiazacyclopentadecin-6-yl)carbamate], the values for the EC50 in assay [1] and in assay [2] were 0.51 to 1 nM and 1.01 to 5 nM, respectively.

As to `COc1cc(F)cc2c(O[C@@H]3C[C@H]4C(=O)N[C@]5(C(=O)NS(=O)(=O)C6(C)CC6)C[C@H]5/C=C\CC[C@@H](C)O[C@@H](C)[C@H](NC(=O)OC(C)(C)C(C)(F)F)C(=O)N4C3)nccc12` [Compound 2018, 3,3-difluoro-2-methylbutan-2-yl ((2R,6S,7S,9R,13aS,14aR,16aS,Z)-2-((7-fluoro-5-methoxyisoquinolin-1-yl)oxy)-7,9-dimethyl-14a-(((1-methylcyclopropyl)sulfonyl)carbamoyl)-5,16-dioxo-2,3,5,6,7,9,10,11,13a,14,14a,15,16,16a-tetradecahydro-1H-cyclopropa[i]pyrrolo[1,2-e][1,5,8]oxadiazacyclopentadecin-6-yl)carbamate], the EC50 in assay [1] is 0.51 to 1 nM; in assay [2] it was 0.1 to 0.5 nM.

Take `CC[C@@H]1O[C@H](C)CC/C=C\[C@@H]2C[C@@]2(C(=O)NS(=O)(=O)C2(CF)CC2)NC(=O)[C@@H]2C[C@@H](Oc3nccc4cc(OC)c(F)cc34)CN2C(=O)[C@H]1NC(=O)OC(C)(C)C(F)(F)F` [Compound 1012]: the EC50 in assay [1] and in assay [2] was 1.01 to 5 nM each time.

With `CCOc1cnc(O[C@@H]2C[C@H]3C(=O)N[C@]4(C(=O)NS(=O)(=O)C5(C)CC5)C[C@H]4/C=C\CC[C@@H](C)O[C@@H](C)[C@H](NC(=O)OC(C)(C)C(F)(F)F)C(=O)N3C2)c2ccccc12` [Compound 2004, 1,1,1-trifluoro-2-methylpropan-2-yl ((2R,6S,7S,9R,13aS,14aR,16aS,Z)-2-((4-ethoxyisoquinolin-1-yl)oxy)-7,9-dimethyl-14a-(((1-methylcyclopropyl)sulfonyl)carbamoyl)-5,16-dioxo-2,3,5,6,7,9,10,11,13a,14,14a,15,16,16a-tetradecahydro-1H-cyclopropa[i]pyrrolo[1,2-e][1,5,8]oxadiazacyclopentadecin-6-yl)carbamate], the concentration giving a half-maximal response (EC50) in assay [1] fell in the range of 0.51 to 1 nM; in assay [2] it was 0.1 to 0.5 nM.

Consider `COc1cc(F)cc2c(O[C@@H]3C[C@H]4C(=O)N[C@]5(C(=O)NS(=O)(=O)C6(CF)CC6)C[C@H]5/C=C\CC[C@@H](C)O[C@@H](C)[C@H](NC(=O)OC(C)(C)C(F)F)C(=O)N4C3)nccc12` [Compound 2022, 1,1-difluoro-2-methylpropan-2-yl ((2R,6S,7S,9R,13aS,14aR,16aS,Z)-2-((7-fluoro-5-methoxyisoquinolin-1-yl)oxy)-14a-(((1-(fluoromethyl)cyclopropyl)sulfonyl)carbamoyl)-7,9-dimethyl-5,16-dioxo-2,3,5,6,7,9,10,11,13a,14,14a,15,16,16a-tetradecahydro-1H-cyclopropa[i]pyrrolo[1,2-e][1,5,8]oxadiazacyclopentadecin-6-yl)carbamate], for which the EC50 in assay [1] and in assay [2] was 1.01 to 5 nM throughout.

As for `C[C@@H]1CC/C=C\[C@@H]2C[C@@]2(C(=O)NS(=O)(=O)C2(C)CC2)NC(=O)[C@@H]2C[C@@H](Oc3nccc4c5c(ccc34)OCCO5)CN2C(=O)[C@@H](NC(=O)OC(C)(C)C(F)(F)F)[C@H](C)O1` [Compound 2009, 1,1,1-trifluoro-2-methylpropan-2-yl ((2R,6S,7S,9R,13aS,14aR,16aS,Z)-2-((2,3-dihydro-[1,4]dioxino[2,3-f]isoquinolin-7-yl)oxy)-7,9-dimethyl-14a-(((1-methylcyclopropyl)sulfonyl)carbamoyl)-5,16-dioxo-2,3,5,6,7,9,10,11,13a,14,14a,15,16,16a-tetradecahydro-1H-cyclopropa[i]pyrrolo[1,2-e][1,5,8]oxadiazacyclopentadecin-6-yl)carbamate], the EC50 fell in the range of 1.01 to 5 nM in assay [1] and 0.51 to 1 nM in assay [2].

Consider `COc1ccc2c(O[C@@H]3C[C@H]4C(=O)N[C@]5(C(=O)NS(=O)(=O)C6(C)CC6)C[C@H]5/C=C\CC[C@@H](C)O[C@@H](C)[C@H](NC(=O)OC(C)(C)C(F)(F)F)C(=O)N4C3)nc(-c3ccc(OC(C)C)cn3)cc2c1` [Compound 2011, 1,1,1-trifluoro-2-methylpropan-2-yl ((2R,6S,7S,9R,13a5,14aR,16aS,Z)-2-((3-(5-isopropoxypyridin-2-yl)-6-methoxyisoquinolin-1-yl)oxy)-7,9-dimethyl-14a-(((1-methylcyclopropyl)sulfonyl)carbamoyl)-5,16-dioxo-2,3,5,6,7,9,10,11,13a,14,14a,15,16,16a-tetradecahydro-1H-cyclopropa[i]pyrrolo[1,2-e][1,5,8]oxadiazacyclopentadecin-6-yl)carbamate], for which the EC50 in assay [1] was in the range of 0.51 to 1 nM; in assay [2], 0.1 to 0.5 nM.

Regarding `COc1ccc2c(O[C@@H]3C[C@H]4C(=O)N[C@]5(C(=O)NS(=O)(=O)C6(C)CC6)C[C@H]5/C=C\CC[C@@H](C)O[C@@H](C)[C@H](NC(=O)OC(C)(C)C(F)(F)F)C(=O)N4C3)nccc2c1` [Compound 2002, 1,1,1-trifluoro-2-methylpropan-2-yl ((2R,6S,7S,9R,13aS,14aR,16aS,Z)-2-((6-methoxyisoquinolin-1-yl)oxy)-7,9-dimethyl-14a-(((1-methylcyclopropyl)sulfonyl)carbamoyl)-5,16-dioxo-2,3,5,6,7,9,10,11,13a,14,14a,15,16,16a-tetradecahydro-1H-cyclopropa[i]pyrrolo[1,2-e][1,5,8]oxadiazacyclopentadecin-6-yl)carbamate], the EC50 lay within 0.51 to 1 nM in assay [1] and 0.1 to 0.5 nM in assay [2].
